From patent US20240150377A1, “MODULATORS OF CYSTIC FIBROSIS TRANSMEMBRANE CONDUCTANCE REGULATOR” (VERTEX PHARMACEUTICALS INCORPORATED, priority 2020, published 2024)
Read-outs that look alike come from different tables or passages of the source. Blank lines part the entries; values can stand above or below the compound they belong to.

Molecular target: T1, CFTR (Homo sapiens, UniProt P13569, DEL508-508)
T1 construct: endogenous in cells; host or cells: primary human bronchial epithelial cells from CF subjects (F508del/MF-HBE), differentiated at air-liquid interface
T1 sequence (P13569 with tags, fused parts or gaps DEL508-508): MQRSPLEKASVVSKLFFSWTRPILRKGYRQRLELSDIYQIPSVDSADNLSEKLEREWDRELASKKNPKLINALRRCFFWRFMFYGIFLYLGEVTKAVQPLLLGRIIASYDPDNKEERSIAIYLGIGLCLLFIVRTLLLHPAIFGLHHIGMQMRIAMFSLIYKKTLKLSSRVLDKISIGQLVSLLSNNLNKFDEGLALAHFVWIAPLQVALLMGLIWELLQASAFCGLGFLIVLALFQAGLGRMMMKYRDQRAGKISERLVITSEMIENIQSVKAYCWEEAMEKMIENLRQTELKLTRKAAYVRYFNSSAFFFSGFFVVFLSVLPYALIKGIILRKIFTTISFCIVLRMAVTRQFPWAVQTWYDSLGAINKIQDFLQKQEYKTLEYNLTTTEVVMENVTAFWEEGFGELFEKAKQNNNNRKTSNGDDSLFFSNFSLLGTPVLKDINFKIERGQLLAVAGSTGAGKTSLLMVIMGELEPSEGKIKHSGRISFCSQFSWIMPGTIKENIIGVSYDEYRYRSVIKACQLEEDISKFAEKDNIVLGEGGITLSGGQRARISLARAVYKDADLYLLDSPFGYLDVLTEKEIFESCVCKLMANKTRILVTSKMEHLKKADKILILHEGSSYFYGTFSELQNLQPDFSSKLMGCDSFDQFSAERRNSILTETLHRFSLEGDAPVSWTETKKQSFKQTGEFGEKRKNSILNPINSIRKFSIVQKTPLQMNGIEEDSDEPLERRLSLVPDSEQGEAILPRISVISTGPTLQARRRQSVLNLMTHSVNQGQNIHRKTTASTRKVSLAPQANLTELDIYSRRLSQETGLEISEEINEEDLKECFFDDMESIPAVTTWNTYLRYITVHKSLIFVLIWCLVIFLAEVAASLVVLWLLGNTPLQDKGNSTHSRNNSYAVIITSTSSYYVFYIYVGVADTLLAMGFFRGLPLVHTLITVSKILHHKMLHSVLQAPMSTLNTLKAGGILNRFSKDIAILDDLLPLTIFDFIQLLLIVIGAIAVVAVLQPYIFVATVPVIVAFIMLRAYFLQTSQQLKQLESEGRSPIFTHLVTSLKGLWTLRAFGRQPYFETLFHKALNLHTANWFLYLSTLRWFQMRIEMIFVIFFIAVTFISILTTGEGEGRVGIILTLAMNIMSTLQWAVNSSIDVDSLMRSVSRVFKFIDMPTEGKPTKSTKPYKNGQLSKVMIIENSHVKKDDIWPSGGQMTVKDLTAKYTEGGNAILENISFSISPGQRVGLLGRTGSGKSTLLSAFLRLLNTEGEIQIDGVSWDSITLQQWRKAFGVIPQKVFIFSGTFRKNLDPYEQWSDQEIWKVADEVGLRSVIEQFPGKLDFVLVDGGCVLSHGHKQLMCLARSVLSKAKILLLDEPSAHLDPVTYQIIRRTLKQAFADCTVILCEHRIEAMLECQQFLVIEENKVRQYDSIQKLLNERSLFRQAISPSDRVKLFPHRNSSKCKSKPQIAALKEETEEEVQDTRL
Assay: HBE assay: Ussing chamber assay of CFTR-mediated short-circuit currents
Format: cell-based
Method in brief: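 CFTR-mediated Isc (μA/cm²) equals the peak response to apical 20 μM forskolin minus the residual after a 20 μM each BPO/GlyH-101/CFTR inhibitor 172 cocktail, recorded in Ussing chambers at Vhold 0 mV, 37 °C, pH 7.4, with 30 μM apical amiloride. Cells were F508del/MF HBE cultures preincubated 18-24 h with corrector (concentration range or 10 μM) plus 1 μM ivacaftor in 20% human serum.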

[1] = Table 12, read-out: HBE Max Activity (%)
[2] = Table 13, read-out: HBE Max Activity (%)
[3] = Table 11, read-out: HBE Max Activity (%)
[4] = HBE assay, read-out: HBE Max activity (%)
[5] = Table 12, at 10 μM, read-out: HBE Activity at 10 μM (%)
[6] = Table 10, read-out: HBE Max activity (%)
[7] = Table 13, at 10 μM, read-out: HBE Activity at 10 μM (%)
[8] = HBE assay, 10 μM, read-out: HBE Activity at 10 μM (%)

SMILES: Cc1cccc(C)c1-c1cc2nc(n1)NS(=O)(=O)c1cccc(c1)C(=O)N(Cc1cccc(N3CCCC3(C)C)n1)[C@H](CC(C)(C)C)CO2 [Compound 592]
EC50 (Table 12, read-out: HBE EC50): 1 to 3 µM | Emax [1]: > 60%

SMILES: Cc1cccc(C)c1-c1cc2nc(n1)NS(=O)(=O)c1cccc(c1)C(=O)N(Cc1nc(N(C)CC(C)(C)C)ccc1C(F)(F)F)[C@H](CC(C)(C)C)CO2 [Compound 457]
EC50 (Table 12, read-out: HBE EC50): < 1 µM | Emax [1]: > 60%

SMILES: Cc1cccc(C)c1-c1cc2nc(n1)NS(=O)(=O)c1cccc(c1)C(=O)N(Cc1ncc(N3CC4CC(C4)C3)cn1)[C@H](CC(C)(C)C)CO2 [Compound 613]
EC50 (HBE EC50 (μM), Table 11): < 1 µM | Emax [3]: > 60%

SMILES: Cc1cccc(C)c1-c1cc2nc(n1)NS(=O)(=O)c1cccc(c1)C(=O)N(Cc1cnc(C3CCCCC3)nc1)[C@H](CC(C)(C)C)CO2 [Compound 271]
EC50 (Table 12, read-out: HBE EC50): < 1 µM | Emax [1]: > 60%

SMILES: Cc1cccc(C)c1-c1cc2nc(n1)NS(=O)(=O)c1cccc(c1)C(=O)N(Cc1nccc(N(C)C34CC(C3)C4)n1)[C@H](CC(C)(C)C)CO2 [Compound 447]
activation at 10 µM [5]: > 600%

SMILES: Cc1cccc(C)c1-c1cc2nc(n1)NS(=O)(=O)c1cccc(c1)C(=O)N(Cc1cncc(N(C)C3CCC34CCC4)n1)[C@H](CC(C)(C)C)CO2 (stereo partly drawn) [Compound 438]
EC50 (Table 12, read-out: HBE EC50): < 1 µM

SMILES: Cc1cccc(C)c1-c1cc2nc(n1)NS(=O)(=O)c1cccc(c1)C(=O)N(Cc1ccc(-c3c(C)noc3C)cc1)[C@H](CC(C)(C)C)CO2 [Compound 292]
Emax [6]: > 60%

SMILES: Cc1cccc(C)c1-c1cc2nc(n1)NS(=O)(=O)c1cccc(c1)C(=O)N(CC(=O)N1CCC(c3ccccc3)CC1)[C@H](CC(C)(C)C)CO2 [Compound 203]
activation at 10 µM [7]: > 600%

SMILES: Cc1cccc(C)c1-c1cc2nc(n1)NS(=O)(=O)c1cccc(c1)C(=O)N(Cc1ccc(N(C)C)cn1)[C@H](CC(C)(C)C)CO2 [Compound 503]
EC50 (Table 10, read-out: HBE EC50): < 1 µM | Emax [6]: > 60%

SMILES: Cc1cccc(C)c1-c1cc2nc(n1)NS(=O)(=O)c1cccc(c1)C(=O)N(Cc1nc(N(C)C)cc(C(F)(F)F)n1)[C@H](CC(C)(C)C)CO2 [Compound 325]
activation at 10 µM [5]: > 600%

SMILES: Cc1cccc(C)c1-c1cc2nc(n1)NS(=O)(=O)c1cccc(c1)C(=O)N(Cc1cncc(N(C)C34CC(C3)C4)n1)[C@H](CC(C)(C)C)CO2 [Compound 443]
EC50 (Table 12, read-out: HBE EC50): < 1 µM | Emax [1]: > 60%

SMILES: Cc1cccc(C)c1-c1cc2nc(n1)NS(=O)(=O)c1cccc(c1)C(=O)N(Cc1ncc(N3[C@H](C)CC[C@@H]3C)cn1)[C@H](CC(C)(C)C)CO2 [Compound 535]
activation at 10 µM [7]: > 600% | EC50 (Table 13, read-out: HBE EC50): < 1 µM | Emax [2]: > 60%

SMILES: Cc1cccc(C)c1-c1cc2nc(n1)NS(=O)(=O)c1cccc(c1)C(=O)N(C(=O)c1ccccc1)[C@H](CC(C)(C)C)CO2 [Compound 256]
activation at 10 µM [7]: > 600%

SMILES: COc1cccc(C)c1-c1cc2nc(n1)NS(=O)(=O)c1cccc(c1)C(=O)N(Cc1ncc(CC(C)C)cn1)[C@H](CC(C)(C)C)CO2 [Compound 576]
activation at 10 µM [5]: > 600%

SMILES: Cc1cccc(C)c1-c1cc2nc(n1)NS(=O)(=O)c1cccc(c1)C(=O)N(Cc1cccc(NCC(C)(C)C)n1)[C@H](CC(C)(C)C)CO2 [Compound 471]
Emax [6]: > 60%

SMILES: Cc1cc(N(C)C)cnc1CN1C(=O)c2cccc(c2)S(=O)(=O)Nc2nc(cc(-c3c(C)cccc3C)n2)OC[C@H]1CC(C)(C)C [Compound 494]
EC50 (Table 10, read-out: HBE EC50): < 1 µM | Emax [6]: > 60%

SMILES: Cc1cccc(C)c1-c1cc2nc(n1)NS(=O)(=O)c1cccc(c1)C(=O)N(Cc1cnn(CC(C)C)c1)[C@H](CC(C)(C)C)CO2 [Compound 487]
Emax [6]: > 60%

SMILES: Cc1cccc(C)c1-c1cc2nc(n1)NS(=O)(=O)c1cccc(c1)C(=O)N(CC(=O)NCC1CCCCC1)[C@H](CC(C)(C)C)CO2 [Compound 230]
EC50 (Table 12, read-out: HBE EC50): < 1 µM | Emax [1]: > 60%

SMILES: Cc1cccc(C)c1-c1cc2nc(n1)NS(=O)(=O)c1cccc(c1)C(=O)N(CC(=O)N1CCC3(CCC3)C1)[C@H](CC(C)(C)C)CO2 [Compound 165]
activation at 10 µM [7]: > 600%

SMILES: Cc1cccc(C)c1-c1cc2cc(n1)NS(=O)(=O)c1cccc(c1)C(=O)N(Cc1cncc(N(C)CC(C)(C)C)n1)[C@H](CC(C)(C)C)CO2 [Compound 527]
EC50 (Table 12, read-out: HBE EC50): < 1 µM | Emax [1]: > 60%

SMILES: Cc1cccc(C)c1-c1cc2nc(n1)NS(=O)(=O)c1cccc(c1)C(=O)N(Cc1cncc(N(C)C(C(=O)O)C(C)C)n1)[C@H](CC(C)(C)C)CO2 (stereo partly drawn) [Compound 243]
activation at 10 µM [5]: > 600%

Next, values leading:

activation at 10 µM (Table 10, at 10 μM, read-out: HBE activity at 10 (μM) (%)): 30 to 60%
SMILES: Cc1cccc(C)c1-c1cc2nc(n1)NS(=O)(=O)c1cccc(c1)C1Oc3ncc4ccccc4c3CN1[C@H](CC(C)(C)C)CO2 (stereo partly drawn) [Compound 753]

EC50 (Table 11, read-out: HBE EC50): < 1 µM
SMILES: COCCN1CCC(CN2C(=O)c3cccc(c3)S(=O)(=O)Nc3nc(cc(-c4c(C)cccc4C)n3)OC[C@H]2CC(C)(C)C)C1=O (stereo partly drawn) [Compound 640]

EC50 (Table 13, read-out: HBE EC50): < 1 µM | Emax [2]: > 60%
SMILES: COCCCN(c1cccc(CN2C(=O)c3cccc(c3)S(=O)(=O)Nc3nc(cc(-c4c(C)cccc4C)n3)OC[C@H]2CC(C)(C)C)n1)C(C)C [Compound 1136]

EC50 (HBE assay, read-out: HBE EC50): < 1 µM | Emax [4]: > 60%
SMILES: Cc1cccc(C)c1-c1cc2nc(n1)NS(=O)(=O)c1cccc(c1)C(=O)N(Cc1ncc(O[C@H](C)C(C)C)cn1)[C@H](CC(C)(C)C)CO2 [Compound 1377]

EC50 (Table 13, read-out: HBE EC50): < 1 µM | Emax [2]: > 60%
SMILES: Cc1cccc(C)c1-c1cc2nc(n1)NS(=O)(=O)c1cccc(c1)C(=O)N(Cc1ncc(N3CCOC(C)(C)C3)cn1)[C@H](CC(C)(C)C)CO2 [Compound 1156]

EC50 (Table 11, read-out: HBE EC50): < 1 µM | Emax [3]: > 60%
SMILES: Cc1cccc(C)c1-c1cc2nc(n1)NS(=O)(=O)c1cccc(c1)C(=O)N(Cc1cnc(OC(C)C)cn1)[C@H](CC(C)(C)C)CO2 [Compound 897]

activation at 10 µM [5]: > 600%
SMILES: Cc1cccc(C)c1-c1cc2nc(n1)NS(=O)(=O)c1cccc(c1)C(=O)N(C[C@H]1C[C@@H](NC(=O)OC(C)C)C1)[C@H](CC(C)(C)C)CO2 [Compound 1006]

EC50 (Table 11, read-out: HBE EC50): 3 to 30 µM | Emax [3]: > 60%
SMILES: Cc1cccc(C)c1-c1cc2nc(n1)NS(=O)(=O)c1cccc(c1)C(=O)N(Cc1ncc(N3CCC(C)(C)CC3)cn1)[C@H](CC(C)C)CO2 [Compound 605]

activation at 10 µM [8]: > 60% | EC50 (HBE assay, read-out: HBE EC50): < 1 µM | Emax [4]: > 60%
SMILES: Cc1cc(C2COCCO2)cnc1CN1C(=O)c2cccc(c2)S(=O)(=O)Nc2nc(cc(-c3c(C)cccc3C)n2)OC[C@H]1CC(C)(C)C (stereo partly drawn) [Compound 1436]

EC50 (Table 11, read-out: HBE EC50): < 1 µM | Emax [3]: > 60%
SMILES: Cc1cccc(C)c1-c1cc2nc(n1)NS(=O)(=O)c1cccc(c1)C(=O)N(Cc1cccc(C(C)(C)C)n1)[C@H](CC(C)(C)C)CO2 [Compound 731]

EC50 (HBE assay, read-out: HBE EC50): < 1 µM | Emax [4]: > 60%
SMILES: COCCN(c1cncc(CN2C(=O)c3cccc(c3)S(=O)(=O)Nc3nc(cc(-c4c(C)cccc4C)n3)OC[C@H]2CC(C)(C)C)n1)C(C)C [Compound 1407]

EC50 (Table 13, read-out: HBE EC50): < 1 µM | Emax [2]: > 60%
SMILES: Cc1cccc(C)c1-c1cc2nc(n1)NS(=O)(=O)c1cccc(n1)C(=O)N(Cc1ncc(OC(C)C)cn1)[C@H](CC(C)(C)C)CO2 [Compound 1128]

EC50 (Table 11, read-out: HBE EC50): < 1 µM | Emax [3]: > 60%
SMILES: Cc1cccc(C)c1-c1cc2nc(n1)NS(=O)(=O)c1cccc(c1)C(=O)N(Cc1ccc(OC(C)C)cn1)[C@H](CC(C)(C)C)CO2 [Compound 744]

activation at 10 µM [8]: > 60%
SMILES: Cc1cccc(C)c1-c1cc2nc(n1)NS(=O)(=O)c1cccc(c1)C(=O)N(Cc1ncc(OC3CCC3)cn1)[C@H](CCC(C)(C)C)CO2 [Compound 1486]

activation at 10 µM [8]: > 60% | EC50 (HBE assay, read-out: HBE EC50): < 1 µM | Emax [4]: > 60%
SMILES: CC[C@H](C)[C@@H]1COc2cc(-c3c(C)cccc3C)nc(n2)NS(=O)(=O)c2cccc(c2)C(=O)N1Cc1ncc(OC2CCC2)cn1 [Compound 1472]

EC50 (Table 11, read-out: HBE EC50): < 1 µM | Emax [3]: > 60%
SMILES: Cc1cccc(C)c1-c1cc2nc(n1)NS(=O)(=O)c1cccc(c1)C(=O)N(Cc1cccc(N3CCC[C@@H]3C)n1)[C@H](CC(C)(C)C)CO2 [Compound 710]

activation at 10 µM [7]: > 600%
SMILES: Cc1cccc(C)c1-c1cc2nc(n1)NS(=O)(=O)c1cccc(c1)C(=O)N(CC1(NC(=O)OC(C)(C)C)CC3(CCC3)C1)[C@H](CC(C)(C)C)CO2 [Compound 999]

EC50 (Table 12, read-out: HBE EC50): < 1 µM | Emax [1]: > 60%
SMILES: Cc1cccc(C)c1-c1cc2nc(n1)NS(=O)(=O)c1cccc(c1)C(=O)N(Cc1cncc(N(C)C(C)C)n1)[C@H](CC(C)(C)C)CO2 [Compound 881]

activation at 10 µM [7]: > 600%
SMILES: Cc1cccc(C)c1-c1cc2nc(n1)NS(=O)(=O)c1cccc(c1)C(=O)N(CC1(C(=O)NC3CCCCC3)CC1)[C@H](CC(C)(C)C)CO2 [Compound 1115]

EC50 (Table 13, read-out: HBE EC50): < 1 µM | Emax [2]: > 60%
SMILES: Cc1cccc(C)c1-c1cc2nc(n1)NS(=O)(=O)c1cccc(c1)C(=O)N(Cc1ncc(N3CC(C)(C)OC(C)(C)C3)cn1)[C@H](CC(C)(C)C)CO2 [Compound 1145]

EC50 (Table 11, read-out: HBE EC50): 1 to 3 µM | Emax [3]: > 60%
SMILES: Cc1cccc(C)c1-c1cc2nc(n1)NS(=O)(=O)c1cccc(c1)C(=O)N(Cc1ncc(N3CC4(CC4)C3)cn1)[C@H](CC(C)(C)C)CO2 [Compound 622]

activation at 10 µM [7]: > 600%
SMILES: Cc1cccc(C)c1-c1cc2nc(n1)NS(=O)(=O)c1cccc(c1)C(=O)N(CC1(N(C)C)CC3(CCC3)C1)[C@H](CC(C)(C)C)CO2 [Compound 997]

EC50 (HBE assay, read-out: HBE EC50): < 1 µM | Emax [4]: > 60%
SMILES: Cc1cccc(C)c1-c1cc2nc(n1)NS(=O)(=O)c1cccc(c1)C(=O)N(Cc1coc(N3CCOCC3)n1)[C@H](CC(C)(C)C)CO2 [Compound 1358]

EC50 (HBE assay, read-out: HBE EC50): < 1 µM | Emax [4]: > 60%
SMILES: Cc1cccc(C)c1-c1cc2nc(n1)NS(=O)(=O)c1cccc(c1)C(=O)N(Cc1ncc(N3CC(C)(C)CC3=O)cn1)[C@H](CC(C)(C)C)CO2 [Compound 1365]
